Tests used:
[1] = system: experimental autoimmune encephalomyelitis (EAE) model rats; assay: EAE model rats: cytokines in spinal fluid, protein ratio and blood-brain barrier permeability; assay type: in vivo, rat; conditions: 3 mg/kg/day i.p., at 10, 11 and 12 days after sensitization, n=3, FIG. 7
Protocol: (§1) Experimental autoimmune encephalomyelitis (EAE) model rats were prepared by known methods (Int. J. Immunopharmacol, 7: 497-503, 1995). First, an encephalitogenic emulsion consisting of equivalent amounts of Guinea pig spinal cord, sterile phosphate buffered saline (PBS), and Freund's incomplete adjuvant was prepared. Thereafter, 10 mg/ml Mycobacterium tuberculosis H37Ra (Difco Laboratories) was added to the emulsion. Rats (inbred male Lewis rats; body weight: 200 to 250 g) were inoculated with 0.1 ml each of the thus obtained emulsion by subcutaneous administration of the emulsion to both plantae of the hind legs thereof, so as to prepare EAE model rats.
With regard to the control rats and EAE model rats, the concentrations of TNF-α and IL-1β in blood plasma and in spinal fluid, the protein ratio in spinal fluid/blood plasma, and blood-brain barrier permeability (the ratio of the concentration (Kp, app) of sodium fluorescein in brain/blood plasma, 20 minutes after administration by intravenous injection) were measured, in both a case where edaravone was administered or a case where edaravone was not administered. The terms “Kp” and “app” indicate apparent distribution ratios, which are values obtained by dividing the concentration of fluorescein in brain tissues by the concentration thereof in blood plasma after intravenous injection of the fluorescein (wherein the values are multiplied by 100, so as to be expressed on a percentage basis). It is to be noted that the specific gravity of brain tissues is expressed as 1 (because the unit of concentration is expressed as/g tissue weight). The amount of edaravone administered was set at 3 mg/kg/day (intraperitoneal administration). From 10 days after sensitization (administration of an antigen solution), edaravone was administered at intervals of 24 hours for 3 days (that is, 3 administrations at 10 days, 11 days, and 12 days after sensitization).

[2] = system: experimental autoimmune encephalomyelitis (EAE) model rats; assay: EAE model rats: limb neuroparalysis score (Paul's clinical score); assay type: in vivo, rat; conditions: edaravone 3 mg/kg/day i.p., dexamethasone 1 mg/kg/day i.p., n=3, FIG. 8
Protocol: as §1
Moreover, limb neuroparalysis scores were evaluated in a group of EAE model rats to which no agents were administered (control), a group of EAE model rats to which dexamethasone was administered (1 mg/kg/day, intraperitoneal administration), and a group of EAE model rats to which edaravone was administered (3 mg/kg/day, intraperitoneal administration). The limb neuroparalysis scores were evaluated in accordance with the following standards.

[3] = reported in Kawai et al. 1997; Wu et al. 2000; cited from earlier work
[4] = system: blood-brain barrier coculture model (brain capillary endothelial cells and astrocytes); assay: Blood-brain barrier coculture model, permeability measured as TEER; assay type: cell-based, bovine brain capillary endothelial cells; rat astrocytes; conditions: TNF-α (50 ng/ml) and/or IL-1β (5 ng/ml) added to the BBB coculture model; n=3; FIG. 2
Protocol: A blood-brain barrier coculture model was prepared by a method that had previously been reported (Eur. J. Pharm. Sci., 12: 215-222, 2001). Specifically, brain microcapillary endothelial cells and rat astrocytes were isolated, and the two types of cells were cultured on both sides of a Transwell™ filter, so as to prepare a coculture model. The preparation method of such a coculture model will be described below.
A brain capillary was isolated from a bovine brain. The meninx and white matter were eliminated therefrom, and the gray matter was recovered in DMEM (DMEM+S) to which 10% fetal calf serum had been added. Vascular fragments were prepared by homogenizing by hand, using a Wheaton homogenizer, and they were then captured on a 150-μm nylon mesh. The blood vessel was digested with collagenase, trypsin and DNAseI, in DMEM+S at 37° C. for 1 hour. […]
The brain capillary was inoculated into a plastic flask used for tissue culture, which had been covered with type IV collagen and fibronectin, and was allowed to adhere to a medium for 4 hours. Thereafter, the medium was exchanged with a growth medium (DMEM+S to which a 50% (v/v) astrocyte-conditioned medium and 125 μg/ml heparin had been added), and growing cells (large quantities of brain capillary endothelial cells and only small quantities of peritheliums) were cultured at 37° C. in 10% CO2. […]

Molecule | increased concentration of IL-1β in spinal fluid [1] | increased concentration of TNF-α in spinal fluid [1] | increased protein ratio in spinal fluid/blood plasma [1] | limb neuroparalysis scores [2] | reactivity to active oxygen [3] | TEER (transcellular endothelial electrical resistance) [4]
CC1=NN(c2ccccc2)C(=O)C1 [edaravone, 3-methyl-1-phenyl-2-pyrazolin-5-one] | inhibited | inhibited | inhibited | improved | high reactivity | 
TNF-α |  |  |  |  |  | significantly reduced
IL-1β: interleukin-1 beta, inflammatory cytokine |  |  |  |  |  | significantly reduced
